These results are taken from ChEMBL document CHEMBL1157539, “Thousands of chemical starting points for antimalarial lead identification” (Nature, 2010).

The assay deals with Plasmodium falciparum. Description: GSK_TCMDC: Inhibition of Plasmodium falciparum 3D7 in whole erythrocytes, using parasite LDH activity as an index of growth. To be noted: Plasmodium falciparum, 3D7. Format: functional, organism-based.
As to `Cc1[nH]c(C)c(-c2ccc(Oc3cccc(Cl)c3)cc2)c(=O)c1Br`, the XC50 turned out to be 0.0342 µM.

`O=C(NCc1ccc(C(=O)NCc2cccc3ccccc23)cc1)c1ccc(O)c(-c2ccc(Cl)c(Cl)c2)c1` had an XC50 of 0.814 µM.

On to `Nc1nc(N)c2c(ccc3c2ccn3CCCCO)n1`, for which the XC50 was determined as 0.117 µM.

`Cc1cc(O)c2c3c1C(=O)C=C1C3c3c(c(O)cc(O)c3C(=O)C1(C)C)C2=O` (stereo not drawn) displayed an XC50 of 1.68 µM.

For `O=C(NCCCCCN1CCCN(C(=O)Nc2ccc(F)c(C(F)(F)F)c2)CC1)C1CC1c1ccc(Cl)c(Cl)c1` (stereo not drawn), the XC50 is 1.03 µM.

Take `CN1CCN(CC(=O)Nc2cccc(-c3ccc(-c4nc5cc(F)ccc5[nH]4)s3)c2)CC1`: the XC50 is 0.679 µM.

`N=C(N)NCC=C(c1ccccc1)c1ccccc1` came in with an XC50 of 0.989 µM.

`O=C(Nc1ccccc1)N(Cc1ccc(-c2ccc(CNCc3ccc4c(c3)OCO4)cc2)cc1)C1CCN(Cc2ccccc2)CC1`: the XC50 was 0.57 µM.

In the case of `CN(C)CCCOc1ccc(CNCc2cccc(Oc3ccc(Cl)cc3)c2)cc1`, the XC50 was found to be 0.824 µM.

In the case of `Fc1ccc(-c2csc3ncnc(Cl)c23)cc1`, the XC50 stood at 0.331 µM.

`Cc1ccc2c(=O)c3cc(C)ccc3[nH]c2c1` gave an XC50 of 0.424 µM.

Compound `O=C(/C=C/c1ccc(Cl)c(Cl)c1)NCCCCCN1CCCC(CNC(=O)/C=C/c2ccccc2)C1` (stereo not drawn) came in with an XC50 of 0.791 µM.

On to `CC(=O)Oc1c(Cl)c(C)nc(C)c1-c1ccc(Oc2ccc(OC(F)(F)F)cc2)cc1`, for which the XC50 amounted to 0.0962 µM.

For the compound `NC(=O)Nc1ccc2c(Nc3ccc(OCc4ccccc4)cc3)ncnc2c1`, the XC50 was 1.26 µM.

Consider `CCNc1cc(C(=O)N[C@@H](Cc2ccccc2)[C@H](O)CNCCC(C)(C)C)c(F)c(N2CCCCS2(=O)=O)c1`, for which the XC50 was 0.797 µM.

As for `O=C(/C=C/c1ccc(Cl)c(Cl)c1)NCCCCCN1CCC(C(=O)Nc2ccc(F)c(Cl)c2)CC1`, the XC50 is 0.647 µM.

For the compound `Cc1cccc2nc(-c3cccc(-c4cccc(NC(=O)Nc5ccc(Cl)cc5)c4)c3)[nH]c12`, the XC50 was found to be 0.236 µM.

On to `Cc1nc(-c2ccncc2)sc1C(=O)Nc1ccc(Cl)cc1C(=O)Nc1ccc(Cl)cc1`, for which the XC50 was determined as 0.759 µM.

Compound `COc1ccc(-n2ccnc2)cc1CNC1CCN(CC2Cn3c(=O)ccc4ccc(F)c2c43)CC1` (stereo not drawn) came in with an XC50 of 0.927 µM.

Take `COc1ccc(N2CCN(CCCCNC(=O)c3ccc(NC(=O)c4cc(Cl)cc(Cl)c4)cc3)CC2)c(OC)c1`: the XC50 came to 0.299 µM.

`Cc1cccc2nc(-c3ccc(-c4ccc(CNCCN5CCNCC5)cc4)s3)[nH]c12` registered an XC50 of 1.15 µM.

Take `CC(=O)C1(c2ccccc2)CCN(CCC2(c3ccc(Cl)c(Cl)c3)CN(C(=O)C3CCCC3)CCO2)CC1` (stereo not drawn): the XC50 was 0.798 µM.

Compound `c1ccc(-c2nnc(-c3ccccn3)nc2NC2CCCCC2)cc1` returned an XC50 of 0.91 µM.

Consider `COc1cccc(NC(=O)Nc2ccc(-c3oc(C(=O)NCC(c4ccccc4)N(C)C)cc3-c3ccncc3)cc2)c1` (stereo not drawn), for which the XC50 amounted to 1.83 µM.

The compound `Cc1cc(C(F)(F)F)n2nc(C(=O)N(Cc3cncn3Cc3cccc(F)c3)CC3CC3)cc2n1` displayed an XC50 of 0.742 µM.

Compound `OCC1CCN(Cc2cccc(-c3ccc(-c4nc5cc(C(F)(F)F)ccc5[nH]4)s3)c2)CC1` registered an XC50 of 0.588 µM.

Take `CCCNCc1ccc(-c2ccc(CN(C(=O)c3nn(-c4ccccc4)nc3C)C(C)CN(C)C)cc2)nc1` (stereo not drawn): the XC50 amounted to 0.923 µM.

In turn, `O=C(Nc1cccnc1)c1cc(-c2cccnc2)nc2ccc(Cl)cc12` returned an XC50 of 1.06 µM.

`CCCCNc1ccc(C(=O)NC2CCN(C[C@H](O)c3ccnc4ccc(OC)cc34)CC2)cc1` displayed an XC50 of 0.442 µM.

As to `COc1cc2nc(NCC3CCCCC3)nc(NCc3ccccc3)c2cc1OC`, the XC50 was determined as 0.142 µM.

In turn, `COc1cc2c(c(OC)c1OC)C[C@H]1c3c(cc4c(c3-2)OCO4)CCN1C` had an XC50 of 0.969 µM.

As to `CN1CCCc2ccc(NC(=O)c3cc(-c4ccc(Cl)cc4)cs3)cc2C1`, the XC50 came out at 0.793 µM.

Regarding `COc1ccc2c(NN=Cc3ccc(Cl)cc3)ccnc2c1`, the XC50 stood at 0.865 µM.

The compound `Cc1ccc(CNC(=O)[C@H](CCCN)Nc2cc(C)nc(Nc3ccccc3)n2)cc1` registered an XC50 of 1.29 µM.

On to `O=C(Nc1ccc(Oc2cccnc2)cc1)C1CCN(Cc2cc(Cl)ccc2O)CC1`, for which the XC50 is 1.35 µM.

The compound `COc1cc(NCCCCCNc2cc(Cl)nc3ccccc23)nc2ccccc12` registered an XC50 of 0.783 µM.

Compound `CCCC(C)N(Cc1ccc(C(C)(C)C)cc1)C(=O)c1cccc(C#N)c1` (stereo not drawn) registered an XC50 of 1.05 µM.

Regarding `Cc1[nH]c(C)c(-c2ccc(CCc3cccc(C(F)(F)F)c3)nc2)c(=O)c1Cl`, the XC50 was 0.101 µM.

The compound `COc1ccc(C(=O)CCC(=O)N(CCC2CCCN2C)Cc2ccc(-c3ccc(CNCCc4ccc(S(C)(=O)=O)cc4)cn3)cc2)cc1F` (stereo not drawn) displayed an XC50 of 0.874 µM.

Regarding `COc1cc2c(cc1C(F)(F)F)N(C(=O)Nc1cc(F)cc(-c3cncnc3)c1)CC2`, the XC50 is 0.5 µM.

`Cc1cc(N(C)C)nc(Nc2ccc(NC(=O)COc3ccccc3)cc2)n1` displayed an XC50 of 1.76 µM.

`CC(C)C[C@H](Nc1ccnc(NCC2CCCCC2)n1)C(=O)Nc1ccccc1` gave an XC50 of 1.43 µM.

Compound `COc1cc2nc(N(C)C)nc(Nc3ccc4c(cnn4Cc4ccccc4)c3)c2cc1OC` displayed an XC50 of 0.044 µM.

`CC(=O)c1cccc(NC(=O)c2ccc(Cl)c(S(=O)(=O)N3CCc4ccccc43)c2)c1` registered an XC50 of 1.64 µM.

In the case of `COc1ccc(-c2cccc(NC(=O)c3ccc(Cl)cc3)c2)cc1CN1CCNCC1`, the XC50 was 0.84 µM.

Consider `O=c1cc(NCCCNCc2cccc(OC(F)(F)F)c2)[nH]c2ccccc12`, for which the XC50 came to 0.854 µM.

`COc1ccc(CN(C)CCOc2ccc(NC(=O)c3cccc4c(=O)c5cc(SC)ccc5[nH]c34)cc2)cc1OC`: the XC50 amounted to 0.877 µM.

`CCc1cn(C)c2c(N3CCCC3=O)cc(C(=O)N[C@@H](Cc3ccccc3)[C@H](O)CNC(C)(C)c3cccc(OC)c3)cc12` showed an XC50 of 0.036 µM.

Consider `O=C(Nc1cccc(-c2cccc(-c3nc4cc(F)ccc4[nH]3)c2)c1)Nc1ccc2c(c1)OCO2`, for which the XC50 is 0.137 µM.

The compound `CCOC(=O)c1ccc(-n2c(C)cc(C=C3SC(=Nc4ccccc4)N(C4CCCC4)C3=O)c2C)cc1` returned an XC50 of 1.17 µM.

In turn, `CCOc1ccc2nc3cc(N)ccc3c(N)c2c1` yielded an XC50 of 0.527 µM.

Consider `Cc1cc(NC(=O)[C@H](CC(C)C)Nc2ccc(C#N)c3ccccc23)ccc1F`, for which the XC50 amounted to 0.777 µM.

The compound `CN1CCC(NCc2cccc(-c3cccc(-c4nc5cc(C(F)(F)F)ccc5[nH]4)c3)c2)CC1` gave an XC50 of 0.142 µM.

The compound `NCC1CCCN1Cc1ccc(-c2ccc(-c3nc4ccccc4[nH]3)s2)cc1` (stereo not drawn) registered an XC50 of 0.934 µM.

`COc1ccccc1NC(=O)CSc1nc2cccnc2n1-c1ccccc1OC` had an XC50 of 0.362 µM.

For the compound `CCCCOC(C(=O)OCC1CCCN1C)(c1ccccc1)c1ccccc1` (stereo not drawn), the XC50 was 0.786 µM.

`Oc1cc(Nc2ccnc3cc(-c4ccc(CN5CCCCC5)o4)c(Cl)cc23)c(Cl)cc1F` registered an XC50 of 1.26 µM.

Compound `CCOC(=O)c1ccc(NC(=O)N[C@@H](Cc2ccccc2)C(=O)NC2CCN(Cc3ccc(O)cc3)C2)cc1` (stereo partly drawn) came in with an XC50 of 0.628 µM.

In the case of `Cc1ccc(C)c2sc(N(CCCn3ccnc3)C(=O)C=Cc3cccs3)nc12`, the XC50 is 1.06 µM.

`c1ccc(-c2cccnn2)cc1`: the XC50 worked out at 0.91 µM.

With `O=C(/C=C/c1ccc(Cl)c(Cl)c1)N1CCC(NCc2ccc3[nH]ccc3c2)CC1`, the XC50 turned out to be 1.02 µM.

On to `Cc1cc(=O)[nH]c2cc(Nc3ccnc(Nc4cccc(C(N)=O)c4)n3)ccc12`, for which the XC50 is 1.52 µM.

Consider `O=S(=O)(c1ccccc1Cl)N1CCCCC(c2ccc(C(F)(F)F)cc2)=N1`, for which the XC50 is 0.942 µM.
